Measurements: patent US8344009B2, “Substituted phenoxy thiazolidinediones as estrogen related receptor-á modulators” (priority 2007, dated 2013)
Marks after values point to notes of the source that are not given here.

What was measured:
Format in all cases: in vivo
C57/BL6 male mice = assay: C57/Bl6 diet induced obesity mouse model
From the text: C57/B16 mice placed on a high fat diet are characterized by hypertriglyceridemia, impaired glucose tolerance and develop hepatic steatosis. Forty C57/BL6 male mice were received at seven weeks of age, allowed to acclimate for one week, placed on high fat diet (Test Diet 58Y1 60% of the calories from fat) for 6 weeks, and then single housed on the same diet for an additional five weeks. Body mass composition and insulin were used to randomize the animals into three groups. […] Ten additional animals were maintained on a low fat diet (4% calories from fat) and during the course of the study were given vehicle orally once a day. Blood was collected from the tail to evaluate glucose, triglyceride, FFA and insulin levels. Body weight and body composition were also recorded. Upon necropsy animals were bled through the orbital sinus under CO2:O2 anesthesia, sacrificed, and several tissues were collected and frozen in liquid nitrogen for storage at −80° C. for further use. Serum plasma samples were prepared by centrifugation in EDTA containing tubes, transferred to 96 well plates and stored at −80° C. Insulin, FFA and triglyceride levels were obtained via Day 10 tail bleed. On day fourteen an OGTT (Oral Glucose Tolerance Test) was done to determine glucose disposal rates in C57B16 mice treated with compound.

ZDF fa/fa male rats = assay: ZDF diabetic rat model at 0.08, 0.4, 2 and 10 mpk; conditions: for % Hb1Ac / FFA (NEFA) / Glucose / Triglycerides / cholesterol / ketone: 28 day ZDF efficacy study; for circulating glucose levels upon intraperitoneal delivery of insulin (ITT): FIG. 10
From the text: Briefly, sixty-five ZDF fa/fa male rats were received at four weeks of age and allowed to acclimate for one week. At five week of age the animals were single housed in cages in a temperature-controlled room with 12-hour light/dark cycle. They were allowed ad libitum access to water and food and throughout the study were maintained on a Purina 5008 diet. […] Animals were given Compound 1 orally once a day for 28 days in the morning at 0.08, 0.4, 2.0 and 10 mpk. The vehicle used for Compound 1 in this study consisted of 15% VE-TEPG, 30% PEG400 and 55% water. Food intake, body weight, glucose, insulin, triglyceride and free fatty acid levels were monitored throughout the study using blood collected from the tail vein. At day 16 of the study an insulin tolerance test (ITT) was done to evaluate peripheral insulin sensitivity. On day 22 an OGTT was done to assess glucose disposal rates. On the day of the necropsy the rats were bled through the orbital sinus under CO2:O2 anesthesia. Animals were sacrificed and several tissues were collected, frozen in liquid nitrogen and stored at −80° C. Serum plasma samples were prepared by centrifugation in EDTA containing tubes, transferred into 96 well plates and stored at −80° C.

AKR/J mice = assay: AKR/J mouse obesity model; conditions: for 3-hydroxy-butyrate / % body fat / FFA (Free Fatty Acids): NEFA (Non Esterified Fatty Acids) / Glucose / Lean Mass / Triglyceride / Insulin / Total body fat: five days; for Insulin: plasma; for Total body fat: high fat diet, Q-NMR
Procedure: AKR/J mice are a polygenic model of diet-induced obesity characterized by hypertriglyceridemia and hyperinsulinemia. AKR/J mice were received at seven weeks of age and allowed to acclimate for one week and then placed on high fat diet (45% of the calories from fat) for five weeks. Animals were treated for five days with 3 mpk (mg/kg) and 30 mpk Compound 1 (Example 1) given orally twice a day. Food intake was measured at day four. On day five, prior to necropsies, body weight was recorded and body composition was measured by Q-NMR (Quantitative Nuclear Magnetic Resonance). Animals were anesthetized with carbon dioxide and blood was collected by cardiac puncture. Plasma was obtained by centrifugation and used to determine circulating insulin levels and clinical chemistries, including liver functions tests, using commercially available kits as per manufacturers instructions. Several tissues were harvested, frozen in liquid nitrogen and stored at −80° C. for further use.

[1] = 10 mpk once a day, HFD, 10 days
[2] = 10 mpk, after 14 days of treatment
[3] = 30 mpk once a day, HFD, 10 days
[4] = 30 mpk, after 14 days of treatment

COc1cc(/C=C2\SC(=O)NC2=O)ccc1Oc1ccc(C#N)cc1C(F)(F)F [Compound 1, 4-[4-(2,4-Dioxo-thiazolidin-5-ylidenemethyl)-2-methoxy-phenoxy]-3-trifluoromethyl-benzonitrile]
FFA (C57/BL6 male mice; [1]): 0.38* mEq/L
Insulin (C57/BL6 male mice; [1]): 1.4* μg/L
Triglyceride (C57/BL6 male mice; 10 mpk once a day, HFD, 10 days, tail bleed): 58** mg/dL
AUC 0-60 min of glucose in OGTT (C57/BL6 male mice; [2]): 15077 mg/dL/1 hr
AUC 0-120 min of glucose in OGTT (C57/BL6 male mice; [2]): 27984 mg/dL/2 hr
3-hydroxy-butyrate (C57/BL6 male mice; 10 mpk, treated for 18 days): 6.0 ×10−5
FFA (NEFA) (C57/BL6 male mice; 10 mpk, treated for 18 days): 0.49 mEq
Glucose (C57/BL6 male mice; 10 mpk, treated for 18 days): 176 mg/dL
LDL (C57/BL6 male mice; 10 mpk, treated for 18 days): 12 mg/dL
Triglyceride (C57/BL6 male mice; 10 mpk, treated for 18 days): 123 mg/dL
FFA (C57/BL6 male mice; [3]): 0.40* mEq/L
Insulin (C57/BL6 male mice; [3]): 1.3* μg/L
Triglyceride (C57/BL6 male mice; 30 mpk once a day, HFD, 10 days, tail bleed): 59* mg/dL
AUC 0-60 min of glucose in OGTT (C57/BL6 male mice; [4]): 14425* mg/dL/1 hr
AUC 0-120 min of glucose in OGTT (C57/BL6 male mice; [4]): 28540 mg/dL/2 hr
3-hydroxy-butyrate (C57/BL6 male mice; 30 mpk, treated for 18 days): 9.1* ×10−5
FFA (NEFA) (C57/BL6 male mice; 30 mpk, treated for 18 days): 0.38* mEq
Glucose (C57/BL6 male mice; 30 mpk, treated for 18 days): 174 mg/dL
LDL (C57/BL6 male mice; 30 mpk, treated for 18 days): 7* mg/dL
Triglyceride (C57/BL6 male mice; 30 mpk, treated for 18 days): 58*** mg/dL
plasma glucose following an oral glucose tolerance test (C57/BL6 male mice; FIG. 2 and Table VI, after 14 days of treatment): reduces fasting plasma glucose following an oral glucose tolerance test
Body weight change (0-28 day) (ZDF fa/fa male rats; 0.08 mpk orally once a day): 71.7
Total food intake (0-28 days) (ZDF fa/fa male rats; 0.08 mpk orally once a day): 804.5
% Hb1Ac (ZDF fa/fa male rats; 0.08 mpk): 10.1%
FFA (NEFA) (ZDF fa/fa male rats; 0.08 mpk): 1.2 mM
Glucose (ZDF fa/fa male rats; 0.08 mpk): 444 mg/dL
Triglycerides (ZDF fa/fa male rats; 0.08 mpk): 770 mg/dL
cholesterol (ZDF fa/fa male rats; 0.08 mpk): 118 mg/dL
ketone (ZDF fa/fa male rats; 0.08 mpk): 162 µmol/L
Body weight change (0-28 day) (ZDF fa/fa male rats; 0.4 mpk orally once a day): 61.9
Total food intake (0-28 days) (ZDF fa/fa male rats; 0.4 mpk orally once a day): 792.3
% Hb1Ac (ZDF fa/fa male rats; 0.4 mpk): 10.0%
FFA (NEFA) (ZDF fa/fa male rats; 0.4 mpk): 0.61 mM
Glucose (ZDF fa/fa male rats; 0.4 mpk): 419 mg/dL
Triglycerides (ZDF fa/fa male rats; 0.4 mpk): 672 mg/dL
cholesterol (ZDF fa/fa male rats; 0.4 mpk): 119 mg/dL
ketone (ZDF fa/fa male rats; 0.4 mpk): 113 µmol/L
Body weight change (0-28 day) (ZDF fa/fa male rats; 2.0 mpk orally once a day): 80.4
Total food intake (0-28 days) (ZDF fa/fa male rats; 2.0 mpk orally once a day): 792.6
% Hb1Ac (ZDF fa/fa male rats; 2.0 mpk): 8.8%
FFA (NEFA) (ZDF fa/fa male rats; 2.0 mpk): 0.87 mM
Glucose (ZDF fa/fa male rats; 2.0 mpk): 376 mg/dL
Triglycerides (ZDF fa/fa male rats; 2.0 mpk): 605 mg/dL
cholesterol (ZDF fa/fa male rats; 2.0 mpk): 117 mg/dL
ketone (ZDF fa/fa male rats; 2.0 mpk): 95* umol/L
Body weight change (0-28 day) (ZDF fa/fa male rats; 10 mpk orally once a day): 95.4
Total food intake (0-28 days) (ZDF fa/fa male rats; 10 mpk orally once a day): 771.4
% Hb1Ac (ZDF fa/fa male rats; 10.0 mpk): 7.7%
FFA (NEFA) (ZDF fa/fa male rats; 10.0 mpk): 0.75 mM
Glucose (ZDF fa/fa male rats; 10.0 mpk): 274* mg/dL
Triglycerides (ZDF fa/fa male rats; 10.0 mpk): 506 mg/dL
cholesterol (ZDF fa/fa male rats; 10.0 mpk): 121 mg/dL
ketone (ZDF fa/fa male rats; 10.0 mpk): 85* umol/L
circulating glucose levels upon intraperitoneal delivery of insulin (ITT) (ZDF fa/fa male rats): reduction in circulating glucose levels
circulating glucose levels upon intraperitoneal delivery of insulin (ITT) (ZDF fa/fa male rats; listed as compound 1): normalizing glucose levels at the 30 minute time point
AUC of glucose during the ITT (ZDF fa/fa male rats; FIG. 10 right panel, 0-60 and 0-120 minute time point): reduction of AUC of glucose
fasting glucose levels (ZDF fa/fa male rats; FIG. 11, after a 4 and 16 hour fast): reduction in fasting glucose levels
plasma glucose following an oral glucose tolerance test (ZDF fa/fa male rats; FIG. 12, OGTT day 22): reducing fasting plasma glucose
fed plasma glucose levels (ZDF fa/fa male rats; FIG. 13, first three weeks of the study): lowering of fed plasma glucose levels
3-hydroxy-butyrate (AKR/J mice; 3 mpk orally twice a day): 8.3 ± 0.9 ×10−5
% body fat (AKR/J mice; 3 mpk orally twice a day): 12.7 ± 0.8%
FFA (Free Fatty Acids): NEFA (Non Esterified Fatty Acids) (AKR/J mice; 3 mpk orally twice a day): 0.59 ± 0.07 mM
Glucose (AKR/J mice; 3 mpk orally twice a day): 165.0 ± 5.0 mg/dL
Lean Mass (AKR/J mice; 3 mpk orally twice a day): 20.2 ± 0.3 g
Triglyceride (AKR/J mice; 3 mpk orally twice a day): 160.0 ± 18.9 mg/dL
Insulin (AKR/J mice; 3 mpk orally twice a day): 9.6 ± 1.5 ng/mL
3-hydroxy-butyrate (AKR/J mice; 30 mpk orally twice a day): 12.6 ± 1.8 ×10−5
% body fat (AKR/J mice; 30 mpk orally twice a day): 9.3 ± 0.6 %
FFA (Free Fatty Acids): NEFA (Non Esterified Fatty Acids) (AKR/J mice; 30 mpk orally twice a day): 0.41 ± 0.05 mM
Glucose (AKR/J mice; 30 mpk orally twice a day): 185.0 ± 10.01 mg/dL
Lean Mass (AKR/J mice; 30 mpk orally twice a day): 20.0 ± 0.2 g
Triglyceride (AKR/J mice; 30 mpk orally twice a day): 80.0 ± 9.8 mg/dL
Insulin (AKR/J mice; 30 mpk orally twice a day): 2.8 ± 0.8 ng/mL
Total body fat (AKR/J mice; AKR/J mice, 3 mpk orally twice a day): 3.87 ± 0.29 g
Total body fat (AKR/J mice; AKR/J mice, 30 mpk orally twice a day): 2.7 ± 0.2 g
body weight (AKR/J mice; FIG. 1, AKR/J mice, 3 and 30 mpk twice a day, day five): reduces body weight
food intake (AKR/J mice; FIG. 1, AKR/J mice, 3 and 30 mpk twice a day, day four): reduces food intake
